Columns and labels:
HDAC4 = HDAC4 (Homo sapiens, UniProt P56524); assay: HDAC4 continuous fluorescence deacylation assay; type: biochemical
HDAC2 = molecular target: T1, HDAC2 (Homo sapiens, UniProt Q92769); assay: HDAC2 in vitro deacetylation assay (ZMAL); type: biochemical; settings: mean ± SD
T1 construct: purchased BPS Bioscience 50052

Sirt6 = Sirt6 (Homo sapiens, UniProt Q8N6T7); assay: Sirt6 in vitro deacylation HPLC assay; type: biochemical
HDAC6 = molecular target: T2, HDAC6 (Homo sapiens, UniProt Q9UBN7); assay: HDAC6 degradation rescue experiment with PROTAC B4 (62) in MCF-7 cells (western blot); type: cell-based; parameters: endogenous in cells; host or cells: MCF-7; settings: 20 μM pretreatment 30 min, then 62 (1 or 10 μM) 6 h
T2 sequence (Q9UBN7 1-1215): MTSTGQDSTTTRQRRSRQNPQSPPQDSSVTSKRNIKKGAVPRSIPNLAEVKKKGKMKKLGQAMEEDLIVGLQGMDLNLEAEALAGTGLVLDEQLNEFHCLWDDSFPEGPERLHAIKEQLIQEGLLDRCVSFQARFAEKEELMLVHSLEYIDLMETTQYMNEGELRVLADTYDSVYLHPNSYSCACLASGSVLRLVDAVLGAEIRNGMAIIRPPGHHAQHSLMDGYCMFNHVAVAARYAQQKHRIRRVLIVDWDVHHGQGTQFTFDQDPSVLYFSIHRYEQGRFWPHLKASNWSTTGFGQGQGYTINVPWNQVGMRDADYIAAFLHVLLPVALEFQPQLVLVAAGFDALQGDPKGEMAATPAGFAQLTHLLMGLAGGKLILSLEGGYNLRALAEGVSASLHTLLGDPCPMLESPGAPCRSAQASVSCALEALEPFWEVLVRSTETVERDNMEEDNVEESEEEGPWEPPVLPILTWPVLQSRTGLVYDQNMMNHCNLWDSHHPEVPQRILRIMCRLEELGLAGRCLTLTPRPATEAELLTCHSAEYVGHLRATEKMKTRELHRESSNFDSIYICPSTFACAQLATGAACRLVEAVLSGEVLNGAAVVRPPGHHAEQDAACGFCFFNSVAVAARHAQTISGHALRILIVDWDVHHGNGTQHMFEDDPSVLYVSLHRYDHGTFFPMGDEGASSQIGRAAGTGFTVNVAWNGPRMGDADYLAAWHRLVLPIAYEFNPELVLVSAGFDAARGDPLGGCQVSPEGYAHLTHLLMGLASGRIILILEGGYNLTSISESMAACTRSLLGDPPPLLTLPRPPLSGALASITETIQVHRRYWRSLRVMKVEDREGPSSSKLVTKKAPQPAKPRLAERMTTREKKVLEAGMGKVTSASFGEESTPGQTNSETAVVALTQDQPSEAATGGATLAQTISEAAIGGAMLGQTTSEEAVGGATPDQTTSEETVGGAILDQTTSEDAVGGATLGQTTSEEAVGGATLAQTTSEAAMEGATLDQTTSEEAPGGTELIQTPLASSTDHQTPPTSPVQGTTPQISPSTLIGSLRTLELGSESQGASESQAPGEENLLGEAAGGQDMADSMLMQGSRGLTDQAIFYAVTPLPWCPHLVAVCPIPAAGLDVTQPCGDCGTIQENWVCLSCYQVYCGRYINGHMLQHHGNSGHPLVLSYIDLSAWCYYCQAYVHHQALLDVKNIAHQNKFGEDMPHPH

HDAC10 = molecular target: T3, HDAC10 (Homo sapiens, UniProt Q969S8); assay: HDAC10 continuous fluorescence deacylation assay; type: biochemical
T3 sequence (Q969S8 1-669): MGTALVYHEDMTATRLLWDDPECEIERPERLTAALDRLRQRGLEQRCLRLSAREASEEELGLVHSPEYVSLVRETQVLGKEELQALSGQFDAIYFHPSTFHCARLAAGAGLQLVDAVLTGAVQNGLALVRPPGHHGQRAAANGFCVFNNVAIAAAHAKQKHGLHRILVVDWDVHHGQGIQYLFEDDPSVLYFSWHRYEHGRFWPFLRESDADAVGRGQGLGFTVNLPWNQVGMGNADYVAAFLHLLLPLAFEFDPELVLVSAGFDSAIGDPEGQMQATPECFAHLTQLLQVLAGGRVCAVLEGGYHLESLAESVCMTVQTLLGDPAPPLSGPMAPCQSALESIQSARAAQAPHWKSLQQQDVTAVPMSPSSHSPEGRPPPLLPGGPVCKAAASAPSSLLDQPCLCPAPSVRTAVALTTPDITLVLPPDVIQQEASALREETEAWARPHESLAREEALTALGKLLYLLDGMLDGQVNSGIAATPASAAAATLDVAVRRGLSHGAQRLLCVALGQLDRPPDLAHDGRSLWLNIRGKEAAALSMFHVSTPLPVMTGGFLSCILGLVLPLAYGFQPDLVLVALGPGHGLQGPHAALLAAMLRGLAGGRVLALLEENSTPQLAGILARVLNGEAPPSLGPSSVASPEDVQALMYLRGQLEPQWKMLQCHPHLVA

Chain of HDAC4 (P56524 whole entry, species assumed): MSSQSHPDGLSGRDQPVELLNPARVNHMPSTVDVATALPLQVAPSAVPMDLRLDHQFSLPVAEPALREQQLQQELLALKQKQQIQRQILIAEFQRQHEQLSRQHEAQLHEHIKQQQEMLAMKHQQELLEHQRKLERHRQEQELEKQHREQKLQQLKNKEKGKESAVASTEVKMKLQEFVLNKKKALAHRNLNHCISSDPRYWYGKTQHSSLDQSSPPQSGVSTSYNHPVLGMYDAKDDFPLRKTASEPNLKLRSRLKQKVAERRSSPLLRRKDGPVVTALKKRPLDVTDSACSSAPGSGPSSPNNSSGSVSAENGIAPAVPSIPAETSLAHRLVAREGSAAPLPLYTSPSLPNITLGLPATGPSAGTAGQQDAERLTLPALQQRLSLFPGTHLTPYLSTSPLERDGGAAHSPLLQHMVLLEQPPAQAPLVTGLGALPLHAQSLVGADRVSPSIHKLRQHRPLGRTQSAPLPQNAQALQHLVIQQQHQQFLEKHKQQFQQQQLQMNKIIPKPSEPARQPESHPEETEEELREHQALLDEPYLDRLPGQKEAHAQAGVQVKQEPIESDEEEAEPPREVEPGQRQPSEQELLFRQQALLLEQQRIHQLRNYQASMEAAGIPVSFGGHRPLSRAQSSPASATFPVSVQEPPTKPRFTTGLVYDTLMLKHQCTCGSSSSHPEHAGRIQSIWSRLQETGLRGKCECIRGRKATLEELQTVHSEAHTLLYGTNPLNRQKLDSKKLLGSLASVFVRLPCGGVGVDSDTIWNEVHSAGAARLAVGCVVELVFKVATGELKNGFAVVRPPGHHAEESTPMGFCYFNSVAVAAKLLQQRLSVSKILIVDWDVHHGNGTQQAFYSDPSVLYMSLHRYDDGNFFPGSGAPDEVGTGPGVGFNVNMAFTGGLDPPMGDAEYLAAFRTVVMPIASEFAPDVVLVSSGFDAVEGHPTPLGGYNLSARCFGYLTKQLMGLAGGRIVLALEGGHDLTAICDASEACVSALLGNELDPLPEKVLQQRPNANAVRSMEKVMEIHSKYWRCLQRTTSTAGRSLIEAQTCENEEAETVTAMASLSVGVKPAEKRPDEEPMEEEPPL
Chain of Sirt6 (Q8N6T7 whole entry, species assumed): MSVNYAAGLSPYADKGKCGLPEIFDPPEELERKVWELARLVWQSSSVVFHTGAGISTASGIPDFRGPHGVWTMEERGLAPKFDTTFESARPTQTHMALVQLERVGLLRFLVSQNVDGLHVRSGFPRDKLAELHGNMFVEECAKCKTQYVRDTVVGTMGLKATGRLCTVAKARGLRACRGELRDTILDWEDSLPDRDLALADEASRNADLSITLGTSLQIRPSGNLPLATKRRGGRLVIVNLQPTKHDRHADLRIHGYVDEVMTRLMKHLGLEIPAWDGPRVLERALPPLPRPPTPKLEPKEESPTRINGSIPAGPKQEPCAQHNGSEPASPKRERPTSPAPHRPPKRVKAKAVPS
T1 sequence (Q92769 whole entry): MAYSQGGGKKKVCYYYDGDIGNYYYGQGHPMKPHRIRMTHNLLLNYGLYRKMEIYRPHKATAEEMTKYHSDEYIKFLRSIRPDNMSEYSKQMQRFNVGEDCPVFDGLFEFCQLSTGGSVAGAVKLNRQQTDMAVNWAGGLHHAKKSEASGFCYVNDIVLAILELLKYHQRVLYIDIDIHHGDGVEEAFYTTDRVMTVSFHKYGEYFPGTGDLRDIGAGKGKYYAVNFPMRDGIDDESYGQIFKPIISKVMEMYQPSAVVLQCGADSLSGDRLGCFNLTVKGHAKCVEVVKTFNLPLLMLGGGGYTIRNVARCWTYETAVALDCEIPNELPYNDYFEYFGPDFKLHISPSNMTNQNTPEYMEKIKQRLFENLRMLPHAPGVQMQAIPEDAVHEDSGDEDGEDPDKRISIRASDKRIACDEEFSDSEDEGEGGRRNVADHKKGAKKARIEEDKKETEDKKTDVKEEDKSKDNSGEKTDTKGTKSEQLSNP

IC50 (HDAC4): > 20 µM | inhibition at 6 µM (HDAC4; @ 6 µM, read-out: HDAC4 percentual inhibition): 4% | inhibition at 20 µM (HDAC4; @ 20 μM, read-out: HDAC4 percentual inhibition): 7% | IC50 (HDAC2): 6 ± 0.2 µM | IC50 (Sirt6): > 500 µM | inhibition at 200 µM (Sirt6; @ 200 µM, read-out: Sirt6 percentual inhibition): 0% | inhibition at 500 µM (Sirt6; @ 500 µM, read-out: Sirt6 percentual inhibition): 10% | IC50 (HDAC10): > 6 µM | inhibition at 6 µM (HDAC10; @ 6 µM, read-out: HDAC10 percentual inhibition): 27% | inhibition at 20 µM (HDAC10; @ 20 μM, read-out: HDAC10 percentual inhibition): 64%
SMILES: CCCCN(Cc1ccc(C(=O)NO)cc1)C(=O)CCCCn1cc(COc2cccc(Cc3cnc(NC(=O)CSc4nc(C)cc(C)n4)s3)c2)nn1 [Compound 33, 4-((N-Butyl-5-(4-((3-((2-(2-((4,6-dimethylpyrimidin-2-yl)thio)acetamido)thiazol-5-yl)methyl)phenoxy)methyl)-1H-1,2,3-triazol-1-yl)pentanamido)methyl)-N-hydroxybenzamide]
Rescue of HDAC6 from degradation induced by PROTAC 62 (HDAC6): able to rescue HDAC6 from proteasomal degradation induced by 62
